Measured values published in US20160297833A1, “THIENOPYRIMIDINES AS MKNK1 AND MKNK2 INHIBITORS” (BAYER PHARMA AKTIENGESELLSCHAFT, priority 2013, published 2016).

The compounds below were run against T1, human full-length MKNK1 (Homo sapiens, UniProt Q9BUB5, T385D) (assay: MKNK1 kinase high ATP assay (TR-FRET)). Conditions: Table 1; MKNK1 kinase high ATP assay, 2 mM ATP; read-out: MKNK1 IC50.
T1 construct: GST (N); purchased Carna Biosciences 02-145; host or cells: insect cells (baculovirus expression system)
T1 sequence (Q9BUB5 1-424 isoform Q9BUB5-2 T344D): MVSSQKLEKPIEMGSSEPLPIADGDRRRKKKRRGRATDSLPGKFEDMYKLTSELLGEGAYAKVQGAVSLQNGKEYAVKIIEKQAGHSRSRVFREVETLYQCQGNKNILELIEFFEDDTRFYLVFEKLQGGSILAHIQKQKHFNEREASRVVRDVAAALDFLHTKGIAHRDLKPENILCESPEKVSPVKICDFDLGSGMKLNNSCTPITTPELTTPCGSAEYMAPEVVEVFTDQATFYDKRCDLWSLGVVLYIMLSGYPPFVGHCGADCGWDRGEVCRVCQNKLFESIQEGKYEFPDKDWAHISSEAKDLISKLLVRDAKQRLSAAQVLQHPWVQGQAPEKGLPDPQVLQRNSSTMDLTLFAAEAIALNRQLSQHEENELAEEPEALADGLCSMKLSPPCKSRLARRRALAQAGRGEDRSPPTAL
Format: biochemical
Procedure, shortened: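 Full-length human MKNK1 (T385D) preincubated 15 min at 22 °C with compound in HEPES pH 7.5/MgCl2/DTT buffer; reaction with 2 mM ATP (final) and 0.06 μM biotinylated peptide (final), 30 min at 22 °C.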

Question: Which IC50 does the source give for `C[C@@H]1COCCN1C(=O)[C@H]1CCc2c(sc3ncnc(Nc4cc5cn[nH]c5cc4OCCN4CCCCC4)c23)C1` [Example 116, [(3R)-3-Methylmorpholin-4-yl][(7S)-4-({6-[2-(piperidin-1-yl)ethoxy]-1H-indazol-5-yl}amino)-5,6,7,8-tetrahydro[1]benzothieno[2,3-d]pyrimidin-7-yl]methanone] here?
Answer: 1190 nM

Question: Which IC50 does the source give for `C[C@H]1COCCN1C(=O)[C@H]1CCc2c(sc3ncnc(Nc4cc5cn[nH]c5cc4OCCN(C)C)c23)C1` [Example 117, [(7S)-4-({6-[2-(Dimethylamino)ethoxy]-1H-indazol-5-yl}amino)-5,6,7,8-tetrahydro[1]benzothieno[2,3-d]pyrimidin-7-yl][(3S)-3-methylmorpholin-4-yl]methanone] here?
Answer: 20 nM

Question: `C[C@H]1COCCN1C(=O)[C@H]1CCc2c(sc3ncnc(Nc4cc5cn[nH]c5cc4OCCN4CCCC4)c23)C1` [Example 118, [(3S)-3-Methylmorpholin-4-yl][(7S)-4-({6-[2-(pyrrolidin-1-yl)ethoxy]-1H-indazol-5-yl}amino)-5,6,7,8-tetrahydro[1]benzothieno[2,3-d]pyrimidin-7-yl]methanone] was tested. Which IC50 did it give?
Answer: 92.3 nM

Question: Which IC50 does the source give for `C[C@H]1COCCN1C(=O)[C@H]1CCc2c(sc3ncnc(Nc4cc5cn[nH]c5cc4OCCN4CCCCC4)c23)C1` [Example 119, [(3S)-3-Methylmorpholin-4-yl][(7S)-4-({6-[2-(piperidin-1-yl)ethoxy]-1H-indazol-5-yl}amino)-5,6,7,8-tetrahydro[1]benzothieno[2,3-d]pyrimidin-7-yl]methanone] here?
Answer: 757 nM

Question: Which IC50 does the source give for `COc1cc2[nH]ncc2cc1Nc1ncnc2sc3c(c12)CC[C@H](C(=O)N1C[C@@H]2C[C@H]1CN2C)C3` [Example 120, {(7S)-4-[(6-Methoxy-1H-indazol-5-yl)amino]-5,6,7,8-tetrahydro[1]benzothieno[2,3-d]pyrimidin-7-yl}[(1S,4S)-5-methyl-2,5-diazabicyclo[2.2.1]hept-2-yl]methanone] here?
Answer: 0.2 nM

Question: How did the IC50 turn out when `COc1cc2[nH]ncc2cc1Nc1ncnc2sc3c(c12)CC[C@H](C(=O)N1C[C@H]2C[C@@H]1CN2C)C3` [Example 121, {(7S)-4-[(6-Methoxy-1H-indazol-5-yl)amino]-5,6,7,8-tetrahydro[1]benzothieno[2,3-d]pyrimidin-7-yl}[(1R,4R)-5-methyl-2,5-diazabicyclo[2.2.1]hept-2-yl]methanone] was run?
Answer: 0.3 nM

Question: `CCOc1cc2[nH]ncc2cc1Nc1ncnc2sc3c(c12)CC[C@H](C(=O)N1CCC(N(C)C)CC1)C3` [Example 122, [4-(Dimethylamino)piperidin-1-yl]{(7S)-4-[(6-ethoxy-1H-indazol-5-yl)amino]-5,6,7,8-tetrahydro[1]benzothieno[2,3-d]pyrimidin-7-yl}methanone] was tested. Which IC50 did it give?
Answer: 0.2 nM

Question: With `COc1cc2[nH]ncc2cc1Nc1ncnc2sc3c(c12)CC[C@H](C(=O)N(C)CCC(F)(F)F)C3` [Example 123, (7S)-4-[(6-Methoxy-1H-indazol-5-yl)amino]-N-methyl-N-(3,3,3-trifluoropropyl)-5,6,7,8-tetrahydro[1]benzothieno[2,3-d]pyrimidine-7-carboxamide] as the compound, how does the IC50 read?
Answer: 0.4 nM

Question: With `COc1cc2[nH]ncc2cc1Nc1ncnc2sc3c(c12)CC[C@H](C(=O)N(C)CC(C)(C)O)C3` [Example 124, (7S)—N-(2-Hydroxy-2-methylpropyl)-4-[(6-methoxy-1H-indazol-5-yl)amino]-N-methyl-5,6,7,8-tetrahydro[1]benzothieno[2,3-d]pyrimidine-7-carboxamide] as the compound, how does the IC50 read?
Answer: 0.3 nM

Question: `CC(C)Oc1cc2[nH]ncc2cc1Nc1ncnc2sc3c(c12)CC[C@H](C(=O)N(C)CCC(F)(F)F)C3` [Example 125, (7S)—N-Methyl-4-{[6-(propan-2-yloxy)-1H-indazol-5-yl]amino}-N-(3,3,3-trifluoropropyl)-5,6,7,8-tetrahydro[1]benzothieno[2,3-d]pyrimidine-7-carboxamide] was tested. Which IC50 did it give?
Answer: 0.4 nM

Question: How did the IC50 turn out when `CC(C)Oc1cc2[nH]ncc2cc1Nc1ncnc2sc3c(c12)CC[C@H](C(=O)N(C)CC(C)(C)O)C3` [Example 126, (7S)—N-(2-Hydroxy-2-methylpropyl)-N-methyl-4-{[6-(propan-2-yloxy)-1H-indazol-5-yl]amino}-5,6,7,8-tetrahydro[1]benzothieno[2,3-d]pyrimidine-7-carboxamide] was run?
Answer: 0.3 nM

Question: For `CC(C)N(C(=O)[C@H]1CCc2c(sc3ncnc(Nc4ccc5[nH]ncc5c4)c23)C1)C(C)C` [Example 127, (7S)-4-(1H-Indazol-5-ylamino)-N,N-di(propan-2-yl)-5,6,7,8-tetrahydro[1]benzothieno[2,3-d]pyrimidine-7-carboxamide], which IC50 is on record?
Answer: 6.5 nM

Question: How did the IC50 turn out when `C=CCN(C)c1cc2[nH]ncc2cc1Nc1ncnc2sc3c(c12)CC[C@H](C(=O)N(C)C)C3` [Example 128, (7S)—N,N-Dimethyl-4-({6-[methyl(prop-2-en-1-yl)amino]-1H-indazol-5-yl}amino)-5,6,7,8-tetrahydro[1]benzothieno[2,3-d]pyrimidine-7-carboxamide] was run?
Answer: 1 nM

Question: For `CC(C)Oc1cc2[nH]ncc2c(F)c1Nc1ncnc2sc3c(c12)CC[C@H](C(=O)N(C)C)C3` [Example 129, (7S)-4-{[4-Fluoro-6-(propan-2-yloxy)-1H-indazol-5-yl]amino}-N,N-dimethyl-5,6,7,8-tetrahydro[1]benzothieno[2,3-d]pyrimidine-7-carboxamide], which IC50 is on record?
Answer: 8.9 nM

Question: How did the IC50 turn out when `C[C@@H]1COCCN1C(=O)[C@H]1CCc2c(sc3ncnc(Nc4cc5cn[nH]c5cc4OCCN)c23)C1` [Example 130, [(7S)-4-{[6-(2-Aminoethoxy)-1H-indazol-5-yl]amino}-5,6,7,8-tetrahydro[1]benzothieno[2,3-d]pyrimidin-7-yl][(3R)-3-methylmorpholin-4-yl]methanone] was run?
Answer: 0.9 nM

Question: How did the IC50 turn out when `C[C@H]1COCCN1C(=O)[C@H]1CCc2c(sc3ncnc(Nc4cc5cn[nH]c5cc4OCCN)c23)C1` [Example 131, [(7S)-4-{[6-(2-Aminoethoxy)-1H-indazol-5-yl]amino}-5,6,7,8-tetrahydro[1]benzothieno[2,3-d]pyrimidin-7-yl][(3S)-3-methylmorpholin-4-yl]methanone] was run?
Answer: 0.4 nM

Question: With `CN(C)C1CCN(c2cc3[nH]ncc3cc2Nc2ncnc3sc4c(c23)CC[C@H](C(=O)N2CCC2)C4)CC1` [Example 132, Azetidin-1-yl[(7S)-4-({6-[4-(dimethylamino)piperidin-1-yl]-1H-indazol-5-yl}amino)-5,6,7,8-tetrahydro[1]benzothieno[2,3-d]pyrimidin-7-yl]methanone] as the compound, how does the IC50 read?
Answer: 27.2 nM

Question: Which IC50 does the source give for `CN(C)C1CCN(c2cc3[nH]ncc3cc2Nc2ncnc3sc4c(c23)CC[C@H](C(=O)N2CCOCC2)C4)CC1` [Example 133, [(7S)-4-({6-[4-(Dimethylamino)piperidin-1-yl]-1H-indazol-5-yl}amino)-5,6,7,8-tetrahydro[1]benzothieno[2,3-d]pyrimidin-7-yl](morpholin-4-yl)methanone] here?
Answer: 37.9 nM

Question: How did the IC50 turn out when `CN(C)CCOc1cc2[nH]ncc2cc1Nc1ncnc2sc3c(c12)CC[C@H](C(=O)N1CCC(N(C)C)CC1)C3` [Example 134, [(7S)-4-({6-[2-(Dimethylamino)ethoxy]-1H-indazol-5-yl}amino)-5,6,7,8-tetrahydro[1]benzothieno[2,3-d]pyrimidin-7-yl][4-(dimethylamino)piperidin-1-yl]methanone] was run?
Answer: 8.3 nM

Question: How did the IC50 turn out when `C[C@H]1COCCN1C(=O)[C@H]1CCc2c(sc3ncnc(Nc4cc5cn[nH]c5cc4N4CCC(N(C)C)CC4)c23)C1` [Example 135, [(7S)-4-({6-[4-(Dimethylamino)piperidin-1-yl]-1H-indazol-5-yl}amino)-5,6,7,8-tetrahydro[1]benzothieno[2,3-d]pyrimidin-7-yl][(3S)-3-methylmorpholin-4-yl]methanone] was run?
Answer: 14.1 nM

Question: `C[C@@H]1COCCN1C(=O)[C@H]1CCc2c(sc3ncnc(Nc4cc5cn[nH]c5cc4N4CCC(N(C)C)CC4)c23)C1` [Example 136, [(7S)-4-({6-[4-(Dimethylamino)piperidin-1-yl]-1H-indazol-5-yl}amino)-5,6,7,8-tetrahydro[1]benzothieno[2,3-d]pyrimidin-7-yl][(3R)-3-methylmorpholin-4-yl]methanone] was tested. Which IC50 did it give?
Answer: 24 nM

Question: How did the IC50 turn out when `C[C@@H]1CN(C(=O)[C@H]2CCc3c(sc4ncnc(Nc5cc6cn[nH]c6cc5N5CCC(N(C)C)CC5)c34)C2)C[C@H](C)O1` [Example 137, [(7S)-4-({6-[4-(Dimethylamino)piperidin-1-yl]-1H-indazol-5-yl}amino)-5,6,7,8-tetrahydro[1]benzothieno[2,3-d]pyrimidin-7-yl][(2R,6S)-2,6-dimethylmorpholin-4-yl]methanone] was run?
Answer: 33 nM

Question: `CN(C)C1CCN(C(=O)[C@H]2CCc3c(sc4ncnc(Nc5cc6cn[nH]c6cc5OCCN5CCCC5)c34)C2)CC1` [Example 138, [4-(Dimethylamino)piperidin-1-yl][(7S)-4-({6-[2-(pyrrolidin-1-yl)ethoxy]-1H-indazol-5-yl}amino)-5,6,7,8-tetrahydro[1]benzothieno[2,3-d]pyrimidin-7-yl]methanone] was tested. Which IC50 did it give?
Answer: 192 nM

Question: For `CN(C)C1CCN(C(=O)[C@H]2CCc3c(sc4ncnc(Nc5cc6cn[nH]c6cc5OCCN5CCCCC5)c34)C2)CC1` [Example 139, [4-(Dimethylamino)piperidin-1-yl][(7S)-4-({6-[2-(piperidin-1-yl)ethoxy]-1H-indazol-5-yl}amino)-5,6,7,8-tetrahydro[1]benzothieno[2,3-d]pyrimidin-7-yl]methanone], which IC50 is on record?
Answer: 95 nM

Question: How did the IC50 turn out when `C[C@H](CN)Oc1cc2[nH]ncc2cc1Nc1ncnc2sc3c(c12)CC[C@H](C(=O)N1CCOC[C@@H]1C)C3` [Example 140, {(7S)-4-[(6-{[(2R)-1-Aminopropan-2-yl]oxy}-1H-indazol-5-yl)amino]-5,6,7,8-tetrahydro[1]benzothieno[2,3-d]pyrimidin-7-yl}[(3S)-3-methylmorpholin-4-yl]methanone] was run?
Answer: 0.4 nM

Question: `C[C@@H](CN)Oc1cc2[nH]ncc2cc1Nc1ncnc2sc3c(c12)CC[C@H](C(=O)N(C)C)C3` [Example 141, (7S)-4-[(6-{[(25)-1-Aminopropan-2-yl]oxy}-1H-indazol-5-yl)amino]-N,N-dimethyl-5,6,7,8-tetrahydro[1]benzothieno[2,3-d]pyrimidine-7-carboxamide] was tested. Which IC50 did it give?
Answer: 3.4 nM
